Several values for one entry are separate records, joined by “and”; a condition that tells them apart may be missing. Equal entries are not always repeated. Activity calls are given as the source filed them. The rule behind the calls is not given here.
Assays:
H5N1 subtype [1] = assay: Antiviral activity against H5N1 subtype infected in MDCK cells; format: functional, organism-based; conditions: Influenza A virus
[2] = Selectivity index, ratio of cytotoxicity against MDCK cells to antiviral activity against H5N1 subtype; format: toxicity, cell-based; conditions: dog, read-out: Selectivity Index
[3] = (§1) Cytotoxicity against MDCK cells by MTT assay; format: cell-based, Canis lupus familiaris; conditions: dog, MDCK cells
[4] = Selectivity index, ratio of CC50 for MDCK cells to IC50 for Influenza A virus (A/Vietnam/1194/2004(H5N1)); format: functional
Influenza A virus [5] = assay: Antiviral activity against Influenza A virus (A/Vietnam/1194/2004(H5N1)) infected in MDCK cells by plaque reduction assay; format: functional, organism-based
H5N1 subtype [6] = assay: Inhibition of H5N1 subtype neuraminidase up to 20 uM
MDCK = assay: as §1; format: cell-based, Canis lupus familiaris; conditions: dog, mdck
Influenza A virus [7] = assay: Antiviral activity against Influenza A virus (A/Vietnam/1194/2004(H5N1)) infected in MDCK cells assessed as inhibition of viral entry at 20 uM treated at the time of infection; format: functional, organism-based
Influenza A virus [8] = assay: Antiviral activity against Influenza A virus (A/Vietnam/1194/2004(H5N1)) infected in MDCK cells assessed as inhibition of viral entry at 20 uM treated 2 hrs post infection; format: functional, organism-based
H5N1 subtype [9] = assay: Inhibition of H5N1 subtype hemagglutinin adsorption into chicken RBC at 100 ug/mL
Influenza A virus [10] = assay: Antiviral activity against Influenza A virus (A/Vietnam/1194/2004(H5N1)) infected in MDCK cells assessed as inhibition of viral entry at 20 uM treated 2 hrs prior to infection; format: functional, organism-based
[11] = Influenza A virus, MDCK, read-out: IC50

| SMILES | CC50 [3] | Ratio CC50/IC50 [4] | IC50 (Influenza A virus [5]; mdck, read-out: IC50) | CC50 (MDCK) | further results |
| --- | --- | --- | --- | --- | --- |
| COc1c(OC)c(C=O)c2c(OC)c(-c3c(C)cc4c(C(C)C)c(OC)c(OC)c(C=O)c4c3OC)c(C)cc2c1C(C)C | – | – | – | – | IC50 (H5N1 subtype [1]): 103 µM; selectivity ratio [2]: > 0.54 |
| CC(=O)Oc1c(OC(C)=O)c(C(=O)O)c2c(OC(C)=O)c(-c3c(C)cc4c(C(C)C)c(OC(C)=O)c(OC(C)=O)c(C(=O)O)c4c3OC(C)=O)c(C)cc2c1C(C)C | 41.5 µM | 18.22 and 12.01 | 2.28 µM | – | IC50 (H5N1 subtype [1]): 2.98 µM; IC50 (Influenza A virus [5]; [11]): 3.46 µM; selectivity ratio [2]: > 8.7 |
| Cc1cc2c(c(O)c1-c1c(C)cc3c(c1O)/C(=C/N[C@@H]1[C@@H](O)[C@H](O)[C@@H](CO)O[C@H]1O)C(=O)C(O)=C3C(C)C)/C(=C/N[C@@H]1[C@@H](O)[C@H](O)[C@@H](CO)O[C@H]1O)C(=O)C(O)=C2C(C)C | 21.8 µM | – | – | – | IC50 (Influenza A virus [5]; mdck): Not Active |
| COc1c(OC)c(C(=O)O)c2c(OC)c(-c3c(C)cc4c(C(C)C)c(OC)c(OC)c(C(=O)O)c4c3OC)c(C)cc2c1C(C)C | – | – | – | – | IC50 (H5N1 subtype [1]): 158 µM; selectivity ratio [2]: > 0.33 |
| Cc1cc2c(C(C)C)c(O)c(O)c(C(=O)O)c2c(O)c1-c1c(C)cc2c(C(C)C)c(O)c(O)c(C(=O)O)c2c1O | 60.6 µM | 18.62 and 15.82 | 1.95 µM | 36.3 µM | inhibition (H5N1 subtype [6]): inactive; IC50 (H5N1 subtype [1]): 2.37 µM; inhibition (Influenza A virus [7]): inactive; inhibition (Influenza A virus [8]): inactive; IC50 (Influenza A virus [5]; [11]): 3.83 µM; inhibition (H5N1 subtype [9]): inactive; inhibition (Influenza A virus [10]): inactive; selectivity ratio [2]: 10.5 |
| Cc1cc2c(c(O)c1-c1c(C)cc3c(c1O)/C(=C/N[C@@H](C)C(=O)[O-])C(=O)C(O)=C3C(C)C)/C(=C/N[C@@H](C)C(=O)[O-])C(=O)C(O)=C2C(C)C.[Na+].[Na+] (stereo in doubt; (+)-5b) | – | 100.72 | 0.47 µM | 47.3 µM | – |
| Cc1cc2c(c(O)c1-c1c(C)cc3c(c1O)/C(=C/N[C@@H](C)C(=O)O)C(=O)C(O)=C3C(C)C)/C(=C/N[C@@H](C)C(=O)O)C(=O)C(O)=C2C(C)C (stereo in doubt; (+)-5b) | – | – | – | – | inhibition (H5N1 subtype [6]): inactive; inhibition (Influenza A virus [7]): inactive; inhibition (Influenza A virus [8]): inactive; inhibition (H5N1 subtype [9]): inactive; inhibition (Influenza A virus [10]): inactive |
| Cc1cc2c(c(O)c1-c1c(C)cc3c(c1O)/C(=C/N[C@H](C(=O)[O-])C(C)C)C(=O)C(O)=C3C(C)C)/C(=C/N[C@H](C(=O)[O-])C(C)C)C(=O)C(O)=C2C(C)C.[Na+].[Na+] (stereo in doubt; (+)-6b) | – | 34.5 | 1.27 µM | 43.8 µM | – |
| Cc1cc2c(c(O)c1-c1c(C)cc3c(c1O)/C(=C/N[C@@H](Cc1c[nH]c4ccccc14)C(=O)[O-])C(=O)C(O)=C3C(C)C)/C(=C/N[C@@H](Cc1c[nH]c3ccccc13)C(=O)[O-])C(=O)C(O)=C2C(C)C.[Na+].[Na+] (stereo in doubt; (+)-7b) | – | 142.6 | 0.25 µM | 35.6 µM | – |
| CC[C@H](C)[C@H](N/C=C1\C(=O)C(O)=C(C(C)C)c2cc(C)c(-c3c(C)cc4c(c3O)/C(=C/N[C@H](C(=O)[O-])[C@@H](C)CC)C(=O)C(O)=C4C(C)C)c(O)c21)C(=O)[O-].[Na+].[Na+] (stereo in doubt; (+)-8b) | – | 132.03 | 0.32 µM | 42.2 µM | – |
| Cc1cc2c(c(O)c1-c1c(C)cc3c(c1O)/C(=C/NC(C)(C)C(=O)[O-])C(=O)C(O)=C3C(C)C)/C(=C/NC(C)(C)C(=O)[O-])C(=O)C(O)=C2C(C)C.[Na+].[Na+] (stereo in doubt; (+)-9b) | – | 51.11 | 0.89 µM | 45.5 µM | – |
| COC(=O)[C@H](C)N/C=C1\C(=O)C(O)=C(C(C)C)c2cc(C)c(-c3c(C)cc4c(c3O)/C(=C/N[C@@H](C)C(=O)OC)C(=O)C(O)=C4C(C)C)c(O)c21 (stereo in doubt; (+)-10b) | – | 50.94 | 0.95 µM | 48.4 µM | – |
| COC(=O)[C@H](Cc1c[nH]c2ccccc12)N/C=C1\C(=O)C(O)=C(C(C)C)c2cc(C)c(-c3c(C)cc4c(c3O)/C(=C/N[C@@H](Cc3c[nH]c5ccccc35)C(=O)OC)C(=O)C(O)=C4C(C)C)c(O)c21 (stereo in doubt; (+)-11b) | – | 22.68 | 1.6 µM | 36.3 µM | – |
| Cc1cc2c(c(O)c1-c1c(C)cc3c(c1O)/C(=C/N[C@@H](C)C(=O)[O-])C(=O)C(O)=C3C(C)C)/C(=C/N[C@@H](C)C(=O)[O-])C(=O)C(O)=C2C(C)C.[Na+].[Na+] (stereo in doubt; (-)-5a) | > 47.3 µM | >44.24 | 1.07 µM | – | – |
| Cc1cc2c(c(O)c1-c1c(C)cc3c(c1O)/C(=C/N[C@@H](C)C(=O)O)C(=O)C(O)=C3C(C)C)/C(=C/N[C@@H](C)C(=O)O)C(=O)C(O)=C2C(C)C (stereo in doubt; (-)-5a) | – | – | – | – | inhibition (H5N1 subtype [6]): inactive; inhibition (Influenza A virus [7]): inactive; inhibition (Influenza A virus [8]): inactive; inhibition (H5N1 subtype [9]): inactive; inhibition (Influenza A virus [10]): inactive |
| Cc1cc2c(c(O)c1-c1c(C)cc3c(c1O)/C(=C/N[C@H](C(=O)[O-])C(C)C)C(=O)C(O)=C3C(C)C)/C(=C/N[C@H](C(=O)[O-])C(C)C)C(=O)C(O)=C2C(C)C.[Na+].[Na+] (stereo in doubt; (-)-6a) | > 43.8 µM | >16.66 | 2.63 µM | – | – |
| Cc1cc2c(c(O)c1-c1c(C)cc3c(c1O)/C(=C/N[C@@H](Cc1c[nH]c4ccccc14)C(=O)[O-])C(=O)C(O)=C3C(C)C)/C(=C/N[C@@H](Cc1c[nH]c3ccccc13)C(=O)[O-])C(=O)C(O)=C2C(C)C.[Na+].[Na+] (stereo in doubt; (-)-7a) | > 35.6 µM | >67.26 | 0.53 µM | – | – |
| CC[C@H](C)[C@H](N/C=C1\C(=O)C(O)=C(C(C)C)c2cc(C)c(-c3c(C)cc4c(c3O)/C(=C/N[C@H](C(=O)[O-])[C@@H](C)CC)C(=O)C(O)=C4C(C)C)c(O)c21)C(=O)[O-].[Na+].[Na+] (stereo in doubt; (-)-8a) | > 42.2 µM | >58.68 | 0.72 µM | – | – |
| Cc1cc2c(c(O)c1-c1c(C)cc3c(c1O)/C(=C/NC(C)(C)C(=O)[O-])C(=O)C(O)=C3C(C)C)/C(=C/NC(C)(C)C(=O)[O-])C(=O)C(O)=C2C(C)C.[Na+].[Na+] (stereo in doubt; (-)-9a) | 50.5 µM | 31.96 | – | – | IC50 (Influenza A virus [5]; [11]): 1.58 µM |
| COC(=O)[C@H](C)N/C=C1\C(=O)C(O)=C(C(C)C)c2cc(C)c(-c3c(C)cc4c(c3O)/C(=C/N[C@@H](C)C(=O)OC)C(=O)C(O)=C4C(C)C)c(O)c21 (stereo in doubt; (-)-10a) | > 48.4 µM | >25.2 | 1.92 µM | – | – |
| COC(=O)[C@H](Cc1c[nH]c2ccccc12)N/C=C1\C(=O)C(O)=C(C(C)C)c2cc(C)c(-c3c(C)cc4c(c3O)/C(=C/N[C@@H](Cc3c[nH]c5ccccc35)C(=O)OC)C(=O)C(O)=C4C(C)C)c(O)c21 (stereo in doubt; (-)-11a) | > 36.3 µM | >10.77 | 3.37 µM | – | – |
| NC12CC3CC(CC(C3)C1)C2 [AMANTADINE] | > 220 µM | >57.39 | – | – | IC50 (H5N1 subtype [1]): 3.84 µM; IC50 (Influenza A virus [5]; [11]): 3.84 µM; selectivity ratio [2]: > 57.4 |
| Cc1cc2c(C(C)C)c(O)c(O)c(C=O)c2c(O)c1-c1c(C)cc2c(C(C)C)c(O)c(O)c(C=O)c2c1O [GOSSYPOL] | 35.4 µM | – | 3.82 µM and 1.87 µM | – | inhibition (H5N1 subtype [6]): inactive; IC50 (H5N1 subtype [1]): 2.14 µM; inhibition (Influenza A virus [7]): inactive; inhibition (Influenza A virus [8]): inactive; inhibition (H5N1 subtype [9]): inactive; inhibition (Influenza A virus [10]): inactive; selectivity ratio [2]: 1.65 |

Source: ChEMBL document CHEMBL2375337, “Synthesis and anti-H5N1 activity of chiral gossypol derivatives and its analogs implicated by a viral entry blocking mechanism” (Bioorg Med Chem Lett, 2013)
